# Source: patent US20070259856A1, “Method for Activating Trpv4 Channel Receptors by Agonists” (priority 2004, published 2007)
# Marks after values point to notes of the source that are not given here.
# Legend:
# TRPV4 channel receptor [1] = biological target: T1, TRPV4 channel receptor (Bos taurus, UniProt A0A8F4X677); assay: Ca2+ influx in bovine articular chondrocytes (FlexStation); format: cell-based; conditions: bovine chondrocytes
# T1 construct: endogenous in cells; host or cells: bovine articular chondrocytes
# aggrecanase = assay: IL-1 induced aggrecanase production, chondrocyte-based aggrecanase peptide cleavage assay; format: cell-based, bovine; conditions: Bos taurus
# Description: Aggrecanases (ADAMTSs), in conjunction with MMPs, degrade aggrecan, one of the major matrix components in articular cartilage. […] 2003; 48(1): 119-133].
# [2] = system: bovine articular cartilage explants; assay: IL-1 induced aggrecan degradation (GAG release, DMMB) in bovine articular cartilage explants; format: cell-based; conditions: Bos taurus; IL-1-stimulated bovine cartilage
# Description: Articular cartilage explants isolated from newborn calves at slaughter were placed in culture, and aggrecan degradation was initiated through stimulation with IL-1. Since aggrecan degradation in this model is believed to be mediated by aggrecanase, TRPV4 channel receptor agonists that are active in the chondrocyte-based aggrecanase peptide assay (Example 11) may also be effective inhibitors in the cartilage explant assay, presumably by blocking aggrecanase production in these tissues.
# At the end of the culture period, conditioned media were assayed for glycosaminoglycan (GAG) levels by colorimetric (DMMB) assay as a measure of aggrecan degradation. In bovine explants, IL-1 induced a profound increase in the amount of GAG released into the media during the 3 day culture. When cartilage was treated with IL-1 in combination with Formula IIc, there was a concentration-dependent reduction in GAG release as shown in Table 5.
# human cartilage explants = assay: Aggrecan degradation (GAG, DMMB) in human cartilage explants; format: cell-based; conditions: for GAG Mean ± SEM: cumulative, 21 days
# Protocol: Because the progression of aggrecan degradation in response to IL-1 in human cartilage is slower than in bovine cartilage, culture media was removed and replaced with fresh treatments every 2-3 days for approximately 3 weeks. For each timepoint, GAG levels were measured by DMMB assay, and cumulative data released over the entire 3 week culture period was calculated.
# The data represents cumulative aggrecan degradation after 21 days in culture. […] In addition, Formula IId caused a concentration-dependent reduction of IL-1-induced aggrecan degradation. […] The estimated IC50's shown in Table 7 are very similar to those IC50's calculated from IL-1-stimulated bovine cartilage.
# [3] = system: bovine articular cartilage explants; assay: IL-1 induced collagen degradation (hydroxyproline) in bovine articular cartilage explants; format: cell-based
# Protocol: IL-1 stimulates collagen degradation in bovine articular cartilage explants after extended (−2-3 weeks) exposure to IL-1. Collagen breakdown was evaluated by measuring the levels of hydroxyproline, a major component of hydrolyzed collagen fibrils, using a colorimetric assay that is understood in the art. Bovine articular cartilage was stimulated with IL-1 for 18 days, in the absence or presence of Formula Ib or Formula IId (both at 1 uM). Media was removed and replaced every 2-4 days with fresh IL-1 and compound through day 18. As has been shown previously, aggrecan degradation precedes collagen breakdown in IL-1-stimulated bovine cartilage explants. Once aggrecan depletion had been achieved by day 10, media were analyzed for collagen breakdown using the hydroxyproline assay.
# [4] = system: HEK293 MSRII cells without human TRPV4 vector; assay: Whole cell patch clamp, HEK293 MSRII cells exposed to BacMam virus alone; format: cell-based; conditions: 3 μM
# TRPV4 channel receptor [5] = biological target: T2, TRPV4 channel receptor (Homo sapiens, UniProt Q9HBA0); assay: Ca2+ influx in human articular chondrocytes (FlexStation)
# TRPV4 channel receptor [6] = biological target: T2, TRPV4 channel receptor; assay: Whole cell patch clamp, HEK293 MSRII cells transduced with human TRPV4 BacMam virus; format: cell-based; parameters: V5-His (from the vector's name only); expressed in transfected cells; host or cells: HEK293
# Description: Functional, cell-based assays presently utilized to evaluate the activity of TRPV4 channel receptor agonists (e.g., FLIPR) provide an indirect, downstream measure of channel activation or blockage. In order to more directly evaluate a compound's effect on TRPV4 channel receptor, procedures to electrophysiologically record current flow through TRPV4 channels have been established. These procedures utilize HEK293 MSRII cells transiently transduced with 5% human TRPV4 BacMam virus, a standard extracellular physiological saline solution, and a well established, potassium channel-blocking electrode (internal) solution (Vriens et al., PNAS, 2004). Standard whole cell patch clamp techniques were used to maintain cells at a holding potential of 0 mV between inductions of 200 msec, −100 mV to +100 mV ramp protocols every 5 seconds. The inset of FIG. 1 represents the inward and outward current amplitude at −100 mV and +100 mV, respectively, during each ramp protocol prior to (baseline) and throughout the administration of 100 nM Formula IId. The main body of FIG. 1 illustrates the recorded current flow in response to a −100 mV to +100 mV ramp at the five specific times labelled in the inset.
# T2 sequence (Q9HBA0 whole entry): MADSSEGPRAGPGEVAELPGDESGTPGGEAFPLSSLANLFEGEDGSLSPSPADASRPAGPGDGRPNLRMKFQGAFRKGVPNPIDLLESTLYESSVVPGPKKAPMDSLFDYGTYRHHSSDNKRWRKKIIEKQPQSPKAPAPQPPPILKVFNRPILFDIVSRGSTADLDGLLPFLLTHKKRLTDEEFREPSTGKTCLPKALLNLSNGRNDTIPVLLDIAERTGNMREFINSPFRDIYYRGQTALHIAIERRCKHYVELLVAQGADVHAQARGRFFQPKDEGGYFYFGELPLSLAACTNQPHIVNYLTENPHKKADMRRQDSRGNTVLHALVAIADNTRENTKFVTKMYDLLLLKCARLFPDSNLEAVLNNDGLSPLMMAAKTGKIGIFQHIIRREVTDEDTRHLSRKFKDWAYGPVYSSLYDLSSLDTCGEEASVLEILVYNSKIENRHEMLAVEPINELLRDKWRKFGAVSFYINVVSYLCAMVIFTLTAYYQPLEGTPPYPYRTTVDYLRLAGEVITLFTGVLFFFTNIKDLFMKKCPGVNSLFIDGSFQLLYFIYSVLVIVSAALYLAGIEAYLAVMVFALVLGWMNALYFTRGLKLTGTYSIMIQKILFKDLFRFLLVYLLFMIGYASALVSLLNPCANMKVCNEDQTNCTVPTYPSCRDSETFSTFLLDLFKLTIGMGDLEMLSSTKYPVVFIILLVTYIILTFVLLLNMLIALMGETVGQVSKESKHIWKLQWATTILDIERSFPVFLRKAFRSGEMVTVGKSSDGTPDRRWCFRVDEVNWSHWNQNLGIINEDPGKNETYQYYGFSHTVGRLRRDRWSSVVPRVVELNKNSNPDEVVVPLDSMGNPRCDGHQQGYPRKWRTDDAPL
# T1 sequence (A0A8F4X677 1-871): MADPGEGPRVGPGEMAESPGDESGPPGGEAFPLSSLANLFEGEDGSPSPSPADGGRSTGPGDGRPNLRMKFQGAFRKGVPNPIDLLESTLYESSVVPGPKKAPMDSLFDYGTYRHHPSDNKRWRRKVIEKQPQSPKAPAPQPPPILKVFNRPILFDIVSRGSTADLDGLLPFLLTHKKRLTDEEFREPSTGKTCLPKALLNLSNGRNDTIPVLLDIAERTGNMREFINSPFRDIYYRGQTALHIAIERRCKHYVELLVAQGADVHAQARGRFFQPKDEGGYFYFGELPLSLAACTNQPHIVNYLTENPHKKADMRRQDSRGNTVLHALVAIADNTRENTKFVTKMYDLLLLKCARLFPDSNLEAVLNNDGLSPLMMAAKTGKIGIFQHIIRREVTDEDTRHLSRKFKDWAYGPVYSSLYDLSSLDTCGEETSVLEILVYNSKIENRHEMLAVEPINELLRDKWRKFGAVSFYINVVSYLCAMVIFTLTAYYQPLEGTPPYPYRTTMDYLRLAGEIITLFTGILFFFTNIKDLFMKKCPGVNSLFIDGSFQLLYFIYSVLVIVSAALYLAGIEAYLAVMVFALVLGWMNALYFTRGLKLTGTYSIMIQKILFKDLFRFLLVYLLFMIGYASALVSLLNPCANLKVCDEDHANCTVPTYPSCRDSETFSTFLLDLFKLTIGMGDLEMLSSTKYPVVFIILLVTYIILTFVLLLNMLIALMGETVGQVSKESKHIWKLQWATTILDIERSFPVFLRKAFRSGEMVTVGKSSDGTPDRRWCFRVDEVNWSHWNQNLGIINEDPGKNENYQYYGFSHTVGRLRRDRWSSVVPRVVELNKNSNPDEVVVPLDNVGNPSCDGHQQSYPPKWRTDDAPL
compound,measurement,setting,value
"CC(C)C[C@H](NC(=O)c1cc2ccccc2s1)C(=O)N[C@@H]1CCCN(S(=O)(=O)c2ccccc2C#N)CC1=O [Formula IId, N-{(1s)-1-[({(4r)-1-[(2-Cyanophenyl)Sulfonyl]-3-Oxohexahydro-1H-Azepin-4-Yl}Amino)Carbonyl]-3-Methylbutyl}-1-Benzothiophene-2-Carboxamide]",Ca Influx - FLEX (bovine) % effic.,TRPV4 channel receptor [1],79%
same,EC50,TRPV4 channel receptor [1]; read-out: Ca Influx - FLEX (bovine) EC50,120 nM
same,IC50,aggrecanase,40 nM
same,IC50,[2],10 nM
same,inhibition at 0.01 µM,"human cartilage explants; Homo sapiens, IL-1 (100 ng/ml), 0.01 uM, relative to IL-1 stim. GAG release",35%
same,inhibition at 0.1 µM,"human cartilage explants; Homo sapiens, IL-1 (100 ng/ml), 0.1 uM, relative to IL-1 stim. GAG release",89%
same,inhibition at 1 µM,"human cartilage explants; Homo sapiens, IL-1 (100 ng/ml), 1 uM, relative to IL-1 stim. GAG release",> 100%
same,inhibition at 0.01 µM,"human cartilage explants; Homo sapiens, unstimulated, 0.01 uM, relative to control GAG release",12%
same,inhibition at 0.1 µM,"human cartilage explants; Homo sapiens, unstimulated, 0.1 uM, relative to control GAG release",34%
same,inhibition at 1 µM,"human cartilage explants; Homo sapiens, unstimulated, 1 uM, relative to control GAG release",45%
same,IC50,"human cartilage explants; Homo sapiens, estimated, 3-point concentration response",30 nM
same,GAG Mean ± SEM,"human cartilage explants; IL-1 (100 ng/ml), 0.01 uM",15.9 ± 1.6 µg/mg
same,GAG Mean ± SEM,"human cartilage explants; IL-1 (100 ng/ml), 0.1 uM",8.2 ± 0.5 µg/mg
same,GAG Mean ± SEM,"human cartilage explants; IL-1 (100 ng/ml), 1 uM",4.8 ± 0.5 µg/mg
same,% inhibition,"human cartilage explants; IL-1 (100 ng/ml), 1 uM, relative to IL-1 stim. GAG release",113** %
same,blocking of aggrecan degradation in unstimulated human cartilage explants,human cartilage explants; absence of IL-1,effective in blocking aggrecan degradation
same,GAG Mean ± SEM,"human cartilage explants; unstimulated control, 0.01 uM",5.9 ± 0.3 µg/mg
same,GAG Mean ± SEM,"human cartilage explants; unstimulated control, 0.1 uM",4.4 ± 0.2 µg/mg
same,GAG Mean ± SEM,"human cartilage explants; unstimulated control, 1 uM",3.7 ± 0.3 µg/mg
same,block of IL-1-induced collagen degradation,[3],"partially, but effectively, blocked"
same,effect on membrane currents,[4],no measurable effect
same,EC50,"TRPV4 channel receptor [5]; Ca Influx - FLEX (human) EC50, human chondrocytes",110 nM
same,Ca Influx - FLEX (human) % effic.,TRPV4 channel receptor [5]; human chondrocytes,179%
same,TRPV4 channel receptor-mediated current,"TRPV4 channel receptor [6]; 100 nM, -100 mV to +100 mV ramp",activated a human TRPV4 channel receptor
same,lowest concentration observed to activate the human TRPV4 channel receptor,TRPV4 channel receptor [6]; whole cell patch clamp,10 nM
